Assay results from US4904590A, “Antibiotic A80915 and process for its production” (Eli Lilly and Company, priority 1988, dated 1990).
Values after ≈ are worked out from the molar mass of the structure shown. Like-named read-outs stand apart in the source and are kept apart here.

Experiments:
[1] = test system: Eubacterium aerofaciens 1235; assay: Susceptibility of anaerobic bacterial isolates (MIC), agar-dilution; type: cell-based
[2] = test system: Bacteriodes fragilis 111; assay: as above; type: cell-based; details: 24 h
[3] = test system: Bacteriodes fragilis 1936B; assay: as above; type: cell-based; details: 24 h
[4] = test system: Propionibacterium acnes 79; assay: as above; type: cell-based; details: Cutibacterium acnes, 79, 24 h
[5] = test system: Bacteriodes corrodens 1874; assay: as above; type: cell-based; details: 24 h
[6] = test system: Streptococcus pneumoniae Park1; type: cell-based; details: Streptococcus pneumoniae, PARK1
Method: (§1) The A80915 antibiotics inhibit the growth of bacteria which are pathogenic to animal life. […] The MIC's in Table III were determined by conventional agar-dilution assays.

[7] = test system: Mycoplasma gallisepticum; type: cell-based; details: Mycoplasmoides gallisepticum; Veterinary organism Mycoplasma gallisepticum; agar-dilution
Method: as §1

[8] = test system: Staphylococcus epidermis EPI1; type: cell-based
Method: as §1

[9] = test system: Staphylococcus aureus X400; type: cell-based
Method: as §1

[10] = test system: Bordetella bronchiseptica; type: cell-based; details: Veterinary organism Bordetella bronchiseptica; agar-dilution
Method: as §1

[11] = test system: Streptococcus faecium 2041; type: cell-based; details: Enterococcus faecium
Method: as §1

[12] = test system: Gram-negative; type: cell-based; details: agar-dilution
Method: as §1

[13] = test system: Staphylococcus sp.; type: cell-based; details: Veterinary organism Staphylococcus sp.; agar-dilution
Method: as §1

[14] = test system: Streptococcus faecium X66; type: cell-based; details: Enterococcus faecium
Method: as §1

[15] = test system: Pasteurella multocida; type: cell-based; details: Veterinary organism Pasteurella multocida; agar-dilution
Method: as §1

[16] = test system: Staphylococcus aureus X1.1; type: cell-based
Method: as §1

[17] = test system: Escherichia coli; type: cell-based; details: Veterinary organism Escherichia coli; agar-dilution
Method: as §1

[18] = test system: Streptococcus sp.; type: cell-based; details: Veterinary organism Streptococcus sp.; agar-dilution
Method: as §1

[19] = test system: Staphylococcus epidermis 222; type: cell-based
Method: as §1

[20] = test system: Salmonella typhimurium; type: cell-based; details: Salmonella enterica; Veterinary organism Salmonella typhimurium; agar-dilution
Method: as §1

[21] = test system: Mycoplasma hyopneumoniae; type: cell-based; details: Mesomycoplasma hyopneumoniae; Veterinary organism Mycoplasma hyopneumoniae; agar-dilution
Method: as §1

[22] = test system: Staphylococcus aureus V41; type: cell-based
Method: as §1

[23] = test system: Streptococcus pyogenes C203; type: cell-based
Method: as §1

[24] = test system: Pasteurella hemolytica; type: cell-based; details: Veterinary organism Pasteurella hemolytica; agar-dilution
Method: as §1

[25] = test system: Peptostreptococcus anaerobius 1428; assay: Susceptibility of anaerobic bacterial isolates (MIC), agar-dilution; type: cell-based; details: Peptostreptococcus anaerobius, 1428, 24 h
[26] = test system: Bacteriodes fragilis 1877; assay: as above; type: cell-based; details: 24 h
[27] = test system: Bacteriodes thetaiotaomicron 1438; assay: as above; type: cell-based; details: 24 h
[28] = test system: Peptococcus prevoti 1281; assay: as above; type: cell-based; details: 24 h
[29] = Acute toxicity in mice, intraperitoneal injection; details: mouse, in vivo, ip
Excerpt: The acute toxicity of the A80915 antibiotics in mice, when administered by intraperitoneal injection and expressed as LD50, is shown in Table V.

[30] = Spontaneous loss of nitrogen on standing in solvent; type: physicochemical; details: standing at room temperature in a solvent such as methanol, ethanol or water
Excerpt: Loss of nitrogen is accelerated by, for example, heating or the addition of salts or mild reducing agents such as sodium hyposulfite, and the like.

[31] = test system: Peptococcus asaccharolyticus 1302; assay: Susceptibility of anaerobic bacterial isolates (MIC), agar-dilution; type: cell-based
[32] = test system: Bacteriodes vulgatis 1211; assay: as above; type: cell-based; details: 24 h
[33] = test system: Trichomonas vaginalis; assay: Anti-protozoan activity (MIC); type: cell-based
[34] = test system: Bacteriodes melaninogenicus 1856/28; assay: Susceptibility of anaerobic bacterial isolates (MIC), agar-dilution; type: cell-based
[35] = test system: Bacteriodes melaninogenicus 2736; assay: as above; type: cell-based; details: 24 h
[36] = test system: Fusobacterium symbiosum 1470; assay: as above; type: cell-based; details: Fusobacterium, 1470, 24 h
[37] = test system: Clostridium perfringens 81; assay: microbe, parasite or virus in culture; type: cell-based; details: Clostridium perfringens, 81, 24 h
[38] = test system: Peptostreptococcus intermedius 1264; assay: Susceptibility of anaerobic bacterial isolates (MIC), agar-dilution; type: cell-based; details: Peptostreptococcus, 1264, 24 h
[39] = test system: Fusobacterium necrophorum 6054A; assay: as above; type: cell-based; details: Fusobacterium necrophorum, 6054A, 24 h
[40] = test system: Trichomonas foetus; assay: Anti-protozoan activity (MIC); type: cell-based; details: Tritrichomonas foetus
[41] = test system: Candida albicans; assay: Anti-fungal activity (MIC); type: cell-based
[42] = test system: Clostridium difficile 2994; assay: Susceptibility of anaerobic bacterial isolates (MIC), agar-dilution; type: cell-based
[43] = test system: Clostridium septicum 1128; assay: as above; type: cell-based; details: 24-hour incubation
Method: The A80915 antibiotics also are active against anaerobic bacteria. […] End points were read after 24-hour incubation.

C=C1CCC(Cl)C(C)(C)C1CC12OC(C)(C)C(Cl)CC1(Cl)C(=O)c1c(O)c(C)c([O-])c([N+]#N)c1C2=O (stereo not shown) [A80915B]
MIC ([1]; Collinsella aerofaciens, 1235, 24 h): > 128 µg/mL | MIC [2]: > 128 µg/mL | MIC [3]: > 128 µg/mL | MIC [4]: 128 µg/mL (≈ 230 µM) | MIC [5]: > 128 µg/mL | MIC [6]: 8 µg/mL (≈ 14.4 µM) | MIC [7]: 0.1 µg/mL (≈ 0.18 µM) | MIC ([8]; Staphylococcus epidermis EPI1, agar-dilution, read-out: MIC): 2 µg/mL (≈ 3.6 µM) | MIC ([9]; Staphylococcus aureus X400, agar-dilution, read-out: MIC): 2 µg/mL (≈ 3.6 µM) | MIC [10]: > 50 µg/mL | MIC ([11]; Streptococcus faecium 2041, agar-dilution, read-out: MIC): 8 µg/mL (≈ 14.4 µM) | MIC [12]: > 128 µg/mL | MIC [13]: < 0.05 µg/mL | MIC ([14]; Streptococcus faecium X66, agar-dilution, read-out: MIC): 8 µg/mL (≈ 14.4 µM) | MIC [15]: 0.2 µg/mL (≈ 0.36 µM) | MIC ([16]; Staphylococcus aureus X1.1, agar-dilution, read-out: MIC): 2 µg/mL (≈ 3.6 µM) | MIC [17]: > 50 µg/mL | MIC [18]: 0.1 µg/mL (≈ 0.18 µM) | MIC ([19]; Staphylococcus epidermis 222, agar-dilution, read-out: MIC): 2 µg/mL (≈ 3.6 µM) | MIC [20]: > 50 µg/mL | MIC [21]: 3.12 µg/mL (≈ 5.61 µM) | MIC ([22]; Staphylococcus aureus V41, agar-dilution, read-out: MIC): 2 µg/mL (≈ 3.6 µM) | MIC ([23]; Streptococcus pyogenes C203, agar-dilution, read-out: MIC): 8 µg/mL (≈ 14.4 µM) | MIC [24]: 12.5 µg/mL (≈ 22.5 µM) | MIC [25]: > 128 µg/mL | MIC [26]: > 128 µg/mL | MIC [27]: > 128 µg/mL | MIC [28]: 64 µg/mL (≈ 115 µM) | LD50 [29]: 75 mg/kg | loss of nitrogen (stability) [30]: spontaneously lose nitrogen | MIC ([31]; Peptoniphilus asaccharolyticus, 1302, 24 h): 128 µg/mL (≈ 230 µM) | MIC [32]: > 128 µg/mL | MIC [33]: 6.25 µg/mL (≈ 11.2 µM) | MIC ([34]; 24 h): 128 µg/mL (≈ 230 µM) | MIC [35]: > 128 µg/mL | MIC [36]: > 128 µg/mL | MIC [37]: > 128 µg/mL | MIC [38]: 128 µg/mL (≈ 230 µM) | MIC [39]: > 128 µg/mL | MIC [40]: 12.5 µg/mL (≈ 22.5 µM) | MIC [41]: 5 µg/mL (≈ 8.99 µM) | MIC ([42]; Clostridioides difficile, 2994, 24 h): > 128 µg/mL | MIC [43]: > 128 µg/mL

Cc1c(O)cc2c(c1O)C(=O)[C@@]1(Cl)C[C@@H](Cl)C(C)(C)O[C@@]1(C[C@H]1C(C)(C)[C@@H](Cl)CC[C@]1(C)O)C2=O [A80915C]
MIC ([1]; Collinsella aerofaciens, Eubacterium aerofaciens 1235, agar-dilution, 24-hour incubation, read-out: MIC): 8 µg/mL (≈ 14.6 µM) | MIC [2]: 128 µg/mL (≈ 234 µM) | MIC [3]: 4 µg/mL (≈ 7.3 µM) | MIC [4]: 4 µg/mL (≈ 7.3 µM) | MIC [5]: > 128 µg/mL | MIC [6]: > 128 µg/mL | MIC [7]: 25 µg/mL (≈ 45.6 µM) | MIC ([8]; Staphylococcus, EPI1): > 128 µg/mL | MIC ([9]; Staphylococcus aureus, X400): > 128 µg/mL | MIC [10]: > 50 µg/mL | MIC [11]; 2041: > 128 µg/mL | MIC [12]: > 128 µg/mL | MIC [13]: 1.56 µg/mL (≈ 2.85 µM) | MIC ([14]; X66): > 128 µg/mL | MIC [15]: 50 µg/mL (≈ 91.3 µM) | MIC ([16]; Staphylococcus aureus, X1.1): > 128 µg/mL | MIC [17]: > 50 µg/mL | MIC [18]: 3.12 µg/mL (≈ 5.69 µM) | MIC ([19]; Staphylococcus, 222): > 128 µg/mL | MIC [20]: > 50 µg/mL | MIC [21]: > 50 µg/mL | MIC ([22]; Staphylococcus aureus, V41): > 128 µg/mL | MIC ([23]; Streptococcus pyogenes, C203): > 128 µg/mL | MIC [24]: 50 µg/mL (≈ 91.3 µM) | MIC [25]: 4 µg/mL (≈ 7.3 µM) | MIC [26]: 4 µg/mL (≈ 7.3 µM) | MIC [27]: > 128 µg/mL | MIC [28]: 2 µg/mL (≈ 3.65 µM) | LD50 [29]: > 300 mg/kg | MIC ([31]; Peptoniphilus asaccharolyticus, Peptococcus asaccharolyticus 1302, agar-dilution, 24-hour incubation, read-out: MIC): 2 µg/mL (≈ 3.65 µM) | MIC [32]: > 128 µg/mL | MIC [33]: > 100 µg/mL | MIC ([34]; Bacteriodes melaninogenicus 1856/28, agar-dilution, 24-hour incubation, read-out: MIC): 64 µg/mL (≈ 117 µM) | MIC [35]: > 128 µg/mL | MIC [36]: > 128 µg/mL | MIC [37]: 8 µg/mL (≈ 14.6 µM) | MIC [38]: 128 µg/mL (≈ 234 µM) | MIC [39]: > 128 µg/mL | MIC [40]: > 100 µg/mL | MIC [41]: > 80 µg/mL | MIC ([42]; Clostridioides difficile, Clostridium difficile 2994, agar-dilution, 24-hour incubation, read-out: MIC): 8 µg/mL (≈ 14.6 µM) | MIC [43]: 8 µg/mL (≈ 14.6 µM)
